Assay results taken from BigSolDB 2.1.

FC(F)(F)c1cccnc1Cl
solubility (mole fraction) (in ethanol, 263.15 K): 0.0807
solubility (mole fraction) (in ethanol, 268.15 K): 0.112
solubility (mole fraction) (in ethanol, 273.15 K): 0.141
solubility (mole fraction) (in ethanol, 278.15 K): 0.186
solubility (mole fraction) (in ethanol, 283.15 K): 0.262
solubility (mole fraction) (in ethanol, 288.15 K): 0.363
solubility (mole fraction) (in ethanol, 293.15 K): 0.476
solubility (mole fraction) (in ethanol, 298.15 K): 0.621
solubility (mole fraction) (in ethanol, 303.15 K): 0.831
solubility (mole fraction) (in ethyl acetate, 263.15 K): 0.306
solubility (mole fraction) (in ethyl acetate, 268.15 K): 0.35
solubility (mole fraction) (in ethyl acetate, 273.15 K): 0.399
solubility (mole fraction) (in ethyl acetate, 278.15 K): 0.455
solubility (mole fraction) (in ethyl acetate, 283.15 K): 0.508
solubility (mole fraction) (in ethyl acetate, 288.15 K): 0.583
solubility (mole fraction) (in ethyl acetate, 293.15 K): 0.652
solubility (mole fraction) (in ethyl acetate, 298.15 K): 0.739
solubility (mole fraction) (in ethyl acetate, 303.15 K): 0.824
solubility (mole fraction) (in n-butanol, 263.15 K): 0.0947
solubility (mole fraction) (in n-butanol, 268.15 K): 0.118
solubility (mole fraction) (in n-butanol, 273.15 K): 0.14
solubility (mole fraction) (in n-butanol, 278.15 K): 0.183
solubility (mole fraction) (in n-butanol, 283.15 K): 0.229
solubility (mole fraction) (in n-butanol, 288.15 K): 0.284
solubility (mole fraction) (in n-butanol, 293.15 K): 0.345
solubility (mole fraction) (in n-butanol, 298.15 K): 0.421
solubility (mole fraction) (in n-butanol, 303.15 K): 0.51
